In patent publication US20090286722A1 (priority 2005, published 2009):

Assays:
[1] = molecular target: dipeptidyl peptidase IV (Sus scrofa, UniProt P22411); assay: DPP IV degradation, % intact peptide by HPLC; assay type: in vitro ADME, porcine; settings: pig, purified porcine dipeptidyl peptidase IV (DPP IV), 37° C., pH 7.8
Description: (§1) HPLC peak area data were used to calculate the percentage intact peptide remaining at the various time points during the incubation.

[2] = molecular target: purified porcine dipeptidyl peptidase IV (Sus scrofa, UniProt P22411); assay: DPP IV degradation, % intact peptide by HPLC; assay type: in vitro ADME; settings: 37° C., pH 7.8
Description: as §1

[3] = test system: ob/ob mice; assay: 24 hour plasma glucose and insulin profile after a single dose in non-fasted ob/ob mice; assay type: in vivo
Description: Dose of 12.5 nmol kg^−1 was chosen to evaluate the longer-term duration of action of a single dose of native or fatty acid derivatised GIP in non-fasted ob/ob mice.

[4] = test system: ob/ob mice; assay: Glucose tolerance 4 hours after peptide administration in 18 hour fasted ob/ob mice; assay type: in vivo; settings: 25 nmoles/kg, glucose 18 mmoles/kg
[5] = test system: DPP IV; settings: cited: O'Harte 2002; Irwin 2005; cited from earlier work
[6] = test system: ob/ob mice; assay: Once daily i.p. injection for 14 days in ob/ob mice
Description: (§2) Obese diabetic (ob/ob) mice derived from the colony maintained at Aston University, UK (23) were used at 12-16 weeks of age. […] Drinking water and standard rodent maintenance diet (Trouw Nutrition, Cheshire, UK) were freely available.
(§3) Food intake and body weight were recorded daily from 5 days before commencement of the treatment regimes. Plasma glucose and insulin concentrations (10:00 h) were monitored at 2-4 day intervals. […] All acute tests were commenced at 10:00 h. […] Serum samples were taken for determination of glucagon concentrations. All other blood samples were collected from the cut tip of the tail vein of conscious mice into chilled fluoride/heparin coated glucose microcentrifuge tubes (Sarstedt, Nümbrecht, Germany) at the times indicated in the Figures. Blood samples were immediately centrifuged using a Beckman microcentrifuge (Beckman Instruments, Galway, Ireland) for 30 seconds at 13,000×g. The resulting plasma was then aliquoted into fresh tubes and stored at −20° C. prior to glucose and insulin determinations.

[7] = test system: ob/ob mice; assay: Acute glucose lowering and insulin release, peptide given i.p. with glucose to 18 hour fasted ob/ob mice
Description: as §2, §3

[8] = after 14 daily injections, glucose 18 mmoles/kg
[9] = after 14 days, glucose 18 mmoles/kg with native GIP
[10] = 25 nmol/kg i.p. with glucose 18 mmol/kg

dipeptidyl peptidase IV, sequence (P22411 whole entry): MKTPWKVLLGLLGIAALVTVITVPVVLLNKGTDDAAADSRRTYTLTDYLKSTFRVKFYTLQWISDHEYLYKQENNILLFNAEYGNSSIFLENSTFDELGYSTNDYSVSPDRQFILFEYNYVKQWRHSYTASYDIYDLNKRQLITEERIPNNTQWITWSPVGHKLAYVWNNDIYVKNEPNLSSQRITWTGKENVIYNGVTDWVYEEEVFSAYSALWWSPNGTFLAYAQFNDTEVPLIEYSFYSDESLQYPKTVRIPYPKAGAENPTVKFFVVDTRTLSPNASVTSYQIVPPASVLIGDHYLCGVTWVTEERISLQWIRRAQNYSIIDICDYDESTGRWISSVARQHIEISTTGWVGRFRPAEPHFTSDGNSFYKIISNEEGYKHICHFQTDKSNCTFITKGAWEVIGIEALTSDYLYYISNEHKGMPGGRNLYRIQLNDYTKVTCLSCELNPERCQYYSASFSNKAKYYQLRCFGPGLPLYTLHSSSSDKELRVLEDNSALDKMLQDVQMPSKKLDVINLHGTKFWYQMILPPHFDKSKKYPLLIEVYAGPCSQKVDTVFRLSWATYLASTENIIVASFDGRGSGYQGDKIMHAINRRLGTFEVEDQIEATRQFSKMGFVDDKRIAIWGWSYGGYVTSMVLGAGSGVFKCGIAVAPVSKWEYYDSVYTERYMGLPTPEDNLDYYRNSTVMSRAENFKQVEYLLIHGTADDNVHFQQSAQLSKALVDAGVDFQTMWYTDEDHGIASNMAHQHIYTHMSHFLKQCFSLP
purified porcine dipeptidyl peptidase IV, sequence (P22411 whole entry): as above

CCCCCCCCCCCCCCCC(=O)NCCCC[C@H](NC(=O)[C@H](Cc1c[nH]c2ccccc12)NC(=O)[C@H](CC(=O)O)NC(=O)[C@H](CC(N)=O)NC(=O)[C@H](CCCCN)NC(=O)[C@H](CCCCN)NC(=O)CNC(=O)[C@H](CCCCN)NC(=O)[C@H](CCC(N)=O)NC(=O)[C@H](C)NC(=O)[C@H](CC(C)C)NC(=O)[C@H](CC(C)C)NC(=O)[C@H](Cc1c[nH]c2ccccc12)NC(=O)[C@H](CC(N)=O)NC(=O)[C@@H](NC(=O)[C@H](Cc1ccccc1)NC(=O)[C@H](CC(=O)O)NC(=O)[C@H](CCC(N)=O)NC(=O)[C@H](CCC(N)=O)NC(=O)[C@H](Cc1c[nH]cn1)NC(=O)[C@@H](NC(=O)[C@H](CCCCN)NC(=O)[C@H](CC(=O)O)NC(=O)[C@H](CCSC)NC(=O)[C@H](C)NC(=O)[C@@H](NC(=O)[C@H](CO)NC(=O)[C@H](Cc1ccc(O)cc1)NC(=O)[C@H](CC(=O)O)NC(=O)[C@H](CO)NC(=O)[C@@H](NC(=O)[C@H](Cc1ccccc1)NC(=O)[C@@H](NC(=O)CNC(=O)[C@H](CCC(=O)O)NC(=O)[C@H](C)NC(=O)[C@@H](N)Cc1ccc(O)cc1)[C@@H](C)O)[C@@H](C)CC)[C@@H](C)CC)[C@@H](C)CC)C(C)C)C(=O)N[C@@H](Cc1c[nH]cn1)C(=O)N[C@@H](CC(N)=O)C(=O)N[C@H](C(=O)N[C@H](C(=O)N[C@@H](CCC(N)=O)C(=O)O)[C@@H](C)O)[C@@H](C)CC [GIP(LysPAL^37)]
remaining at 2 h, 2 mM ([1]; 2 h incubation with DPP IV (5 mU), read-out: % Intact peptide remaining after time (h) 2): 100%
remaining at 8 h, 2 mM ([1]; 8 h incubation with DPP IV (5 mU), read-out: % Intact peptide remaining after time (h) 8): 100%
remaining at 24 h, 2 mM ([1]; 24 h incubation with DPP IV (5 mU), read-out: % Intact peptide remaining after time (h) 24): 100%
% Intact peptide remaining after time (h) 0 ([2]; 0 h incubation with DPP IV (5 mU)): 100%
% Intact peptide remaining after time (h) 24 ([2]; 24 h incubation with DPP IV (5 mU)): remained fully intact
effect on plasma glucose over 24 hours ([3]; single 12.5 nmol/kg i.p.): significant (P<0.01) and sustained decrease
glucose concentrations at 24 hours and AUC values versus native GIP or saline treated controls ([3]; single 12.5 nmol/kg i.p.): significantly less
insulin concentrations from 4 to 24 hours versus controls ([3]; single 12.5 nmol/kg i.p.): not significantly different
time for which decline of plasma glucose was sustained after single injection ([3]; single injection): at least 24 hours
insulinotropic properties 4 hours after administration [4]: less evident
reduction of glycaemic excursion following i.p. glucose 4 hours after administration ([4]; versus saline): 18%
resistance to DPP IV degradation [5]: increased resistance to DPP IV degradation
effect on body weight ([6]; 25 nmoles/kg/day, 14 days): no effect
effect on food intake ([6]; 25 nmoles/kg/day, 14 days): no effect
non-fasting plasma insulin concentrations (tendency towards elevated) ([6]; 25 nmoles/kg/day, 14 days): did not achieve statistical significance
non-fasting plasma glucose concentrations at 14 days versus control ([6]; 25 nmoles/kg/day, day 14): significantly (p<0.05) lowered
plasma glucagon on day 14 versus control ([6]; 25 nmoles/kg/day, day 14): no differences observed
islet area compared with saline-treated ob/ob mice ([6]; after 14 daily injections): significant increases
number of pancreatic islets compared with saline-treated ob/ob mice ([6]; after 14 daily injections): significant increases
pancreatic insulin content compared with saline-treated controls ([6]; after 14 daily injections): did not affect
pancreatic weight compared with saline-treated controls ([6]; after 14 daily injections): did not affect
insulinotropic response following i.p. glucose versus control [6, 8]: augmented
overall glycaemic excursion after i.p. glucose versus control [6, 8]: significantly reduced
plasma glucose response to 15 minutes feeding, at 15 minutes ([6]; after 14 days, 18 hours fasted): significantly lowered
plasma insulin response to 15 minutes feeding, at 15 minutes ([6]; after 14 days, 18 hours fasted): significantly increased
overall insulinotropic response to feeding ([6]; after 14 days, 18 hours fasted, AUC 0-105 min): overall increased insulinotropic response
hypoglycemic action of insulin (insulin sensitivity), AUC and post injection values versus controls ([6]; after 14 days, insulin 50 U/kg i.p.): significantly augmented
glycaemic excursions after glucose with native GIP compared to control animals [6, 9]: significantly decreased
overall glucose-dependent insulinotropic response to native GIP [6, 9]: significantly augmented
adverse effects following long-term administration ([6]; long-term administration): No adverse effects were observed
glucose AUC response compared to native GIP [7, 10]: significant reduction
plasma glucose concentrations and AUC (0-60 min) compared to glucose alone [7, 10]: significantly reduced
overall enhancement of insulin release over native GIP ([7]; 25 nmol/kg i.p. with glucose, insulin AUC 0-60 min): 2.7 fold
